Tests used:
Type in all cases: in vivo, human
[1] = tested on: bacterial vaginosis; experiment: Phase II clinical trial, recovery by Amsel criteria and Nugent score; conditions: for Recovery of patients after relapse of bacterial vaginosis / Recovery of patients suffering from a first episode of bacterial vaginosis: visit V4 as titled, Amsel and Nugent
From the text: The example describes the clinical trial Phase II carried out on 114 patients affected by bacterial vaginosis, non-pregnant, having an age between 18 and 50 years. The diagnosis of bacterial vaginosis was based on Amsel criteria, wherein at least three criteria out of four must be positive, and on the Nugent score, wherein a score higher than four indicates the presence of pathogenic vaginal bacteria. The objectives of the trial were the evaluation of recovery from bacterial vaginosis both according to Amsel criteria (Amsel index <3) and according to Nugent score (Nugent index <4) 7-10 days after the end of the therapy. The secondary objectives of the trial were the recovery, separately evaluated according to Amsel criteria and to Nugent score, at the first control visit (V3), the continued recovery at the second control visit (V4) and the evaluation of the composition of vaginal microbiota by means of PCR and PCR-DGGE. In particular, the patients affected by bacterial vaginosis and not affected by contemporaneous viral, protozoan and fungal vaginal infections were assigned to one of the following treatment groups using a centralized randomization procedure and a double-blind experimental design: Group A: 21 patients receiving a vaginal tablet of rifaximin containing 100 mg rifaximin, prepared according to Example 2, once a day for five days, in the evening; Group B: 23 patients receiving a vaginal tablet of rifaximin containing 25 mg rifaximin, prepared according to Example 1, once a day for five days, in the evening; Group C: 19 patients receiving a vaginal tablet of rifaximin containing 100 mg rifaximin, prepared according to Example 2, once a day for two days, in the evening, plus a vaginal tablet of placebo, once a day for the remaining three days, in the evening; Group D: 22 patients receiving a placebo tablet prepared according to Example 1, wherein the rifaximin amount was replaced by lactose monohydrate, once a day for five days, in the evening. The study included a screening visit (V1) followed by a randomization visit after seven days (V2), by a first control visit 7-10 days after the end of the therapy (V3) and by a second and last control visit 28-35 days after the end of the therapy (V4). The evaluation of the attainment of the primary objective was carried out during visit V3, and the evaluation of the attainment of the secondary objectives was evaluated during the second and last visit (V4). Table 18 reports the percent recovery from the disease at the visit V3, according to both evaluation criteria, namely the clinical one (Amsel) and the microbiological (Nugent). The recovery was evaluated according to Nugent score by using a Gram stained slide and by evaluating the proportion between Lactobacilli and other bacteria such as Gram-variable or Gram-negative coccobacilli, Gram-variable curved bacilli.

[2] = tested on: vaginal microbiota; experiment: Vaginal microbiota by PCR-DGGE (cluster analysis, Similarity Index, Richness Index); design: key to Similarity Index V1-V3 / Similarity Index V1-V4 / Similarity Index V3-V4 / Similarity Index V1-V3-V4: % similarity between DGGE profiles (Pearson correlation)
Description: During the clinical trial samples of vaginal rinses were taken, and the composition of vaginal microbiota was determined by means of the PCR-DGGE technique, allowing the identification of various bacterial DNA through an electrophoretic process and a DNA amplification with universal primers for the bacterial 16S rRNA region. The result of this technique was a sequence of visible bands, called clusters, wherein each of them is representative for the DNA of bacterial species present in the considered sample. The analysis of clusters of DGGE profiles of samples, carried out by using the FPQuest software (Bio-Rad) gives the information relating to the similarity of two samples. In the specific case wherein the recovery is intended as reduction of pathogenic species, it is positive that the sample of a patient after treatment is quite different from the sample of the same patient before treatment. The analysis was carried out with vaginal samples at the visits V1, V3 and V4 for the four groups A, B, C and D of treated patients. In order to evaluate the pharmacological action of the examined rifaximin preparations, different treatment groups were compared through the so called Similarity Indexes (SI). The analysis consists in evaluating the similarity of electrophoretic profiles calculated on the basis of the Pearson correlation coefficient. In the examined case, SI indicates the percent similarity between two or more DGGE profiles belonging to the same person at the different visits. Another adopted criterion of evaluation of the samples is the so called Richness Index (RI). This criterion, based on the bands of each DGGE profile, gives the measure of the complexity of the bacterial population, which is a sign of disease for the occurrence of new pathogenic species. Table 32 reports the RI average values, measured at the visits V1 and V3.

[3] = Phase I systemic absorption of rifaximin vaginal tablets in healthy volunteers; conditions: single 100 mg vaginal tablet, 30 minutes to 24 hours; LLOQ 0.5 ng/ml
Description: The samples were analyzed by liquid chromatography equipped with mass spectrometry detector, with a lower limit of quantization (LLOQ) of rifaximin concentration 0.5 ng/ml.

[4] = visit V3, Group A: 1 tablet 100 mg × 5 days
[5] = visit V3, Group A: 1 tablet 100 mg × 5 days, listed as rifaximin
[6] = visit V3, Group B: 1 tablet 25 mg × 5 days
[7] = visit V3, Group B: 1 tablet 25 mg × 5 days, listed as rifaximin
[8] = visit V3, Group C: 1 tablet 100 mg × 2 days
[9] = visit V3, Group C: 1 tablet 100 mg × 2 days, listed as rifaximin
[10] = Group A: 1 tablet 100 mg × 5 days
[11] = Group B: 1 tablet 25 mg × 5 days
[12] = Group C: 1 tablet 100 mg × 2 days

With CO[C@H]1/C=C/O[C@@]2(C)Oc3c(C)c(O)c4c(O)c(c5c(nc6cc(C)ccn65)c4c3C2=O)NC(=O)/C(C)=C\C=C\[C@H](C)[C@H](O)[C@@H](C)[C@@H](O)[C@@H](C)[C@H](OC(C)=O)[C@@H]1C [Rifaximin] the “Patients with decrease Nugent score ≥8 points” value [1, 4] was 14.29%, the “Patients with decreased Nugent score ≤0 points (not responding)” value [1, 4] was 9.52% and the “Patients with decreased Nugent score ≥3 points” value [1, 4] was 52.4%. The “Patients with decreased Nugent score ≥5 points” value [1, 4] was 28.6%, the “Recovered patients, both criteria (Amsel and Nugent)” value (“Recovered patients, both criteria” for short) [1, 4] was 25.9% and the “Recovered patients, clinical evaluation criteria (Amsel)” value (“Recovered patients … (Amsel)” below) [1, 4] was 66.7%. For the same compound, the “Recovered patients, microbiological evaluation criteria (Nugent)” value [1, 4] was 25.9%, the “Patients with decreased Nugent score ≥3 points” value [1, 5] was “higher than 50%” and the “Patients with decreased Nugent score ≥5 points” value [1, 5] was “about 28%”. For the same compound, the “Recovered patients, microbiological evaluation criteria (Nugent)” value [1, 5] was “about 25%”, the “Patients with decrease Nugent score ≥8 points” value [1, 6] was 17.39% and the “Patients with decreased Nugent score ≤0 points (not responding)” value [1, 6] was 17.39%. For the same compound, the “Patients with decreased Nugent score ≥3 points” value [1, 6] was 65.2%, the “Patients with decreased Nugent score ≥5 points” value [1, 6] was 47.8% and the “Recovered patients, both criteria” value [1, 6] was 48.0%. The “Recovered patients … (Amsel)” value [1, 6] was 80.0%, the “Recovered patients, microbiological evaluation criteria (Nugent)” value [1, 6] was 48.0% and the “Patients with decreased Nugent score ≥3 points” value [1, 7] was “higher than 65%”. For the same compound, the “Patients with decreased Nugent score ≥5 points” value [1, 7] was “about 48%”, the “Recovered patients, microbiological evaluation criteria (Nugent)” value [1, 7] was 47% and the “Patients with decrease Nugent score ≥8 points” value [1, 8] was 15.79%. The “Patients with decreased Nugent score ≤0 points (not responding)” value [1, 8] was 36.84%, the “Patients with decreased Nugent score ≥3 points” value [1, 8] was 36.9% and the “Patients with decreased Nugent score ≥5 points” value [1, 8] was 26.3%. For the same compound, the “Recovered patients, both criteria” value [1, 8] was 36.0%, the “Recovered patients … (Amsel)” value [1, 8] was 72.0% and the “Recovered patients, microbiological evaluation criteria (Nugent)” value [1, 8] was 36.0%. The “Patients with decreased Nugent score ≥3 points” value [1, 9] was “higher than 30%”, the “Patients with decreased Nugent score ≥5 points” value [1, 9] was “about 26%” and the “Recovered patients, microbiological evaluation criteria (Nugent)” value [1, 9] was “about 36%”. The “Recovered patients, both criteria” value ([1]; visit V4, Group A: 1 tablet 100 mg × 5 days) was 14.8%, the “Recovered patients, both criteria” value ([1]; visit V4, Group B: 1 tablet 25 mg × 5 days) was 28.0% and the “Recovered patients, both criteria” value ([1]; visit V4, Group C: 1 tablet 100 mg × 2 days) was 4.0%. For the same compound, the “Recovery of patients after relapse of bacterial vaginosis” value [1, 10] was 38.5%, the “Recovery of patients suffering from a first episode of bacterial vaginosis” value (“Recovery of patients suffering” below) [1, 10] was 14.3% and the “Recovery of patients after relapse of bacterial vaginosis” value [1, 11] was 53.8%. For the same compound, the “Recovery of patients suffering” value [1, 11] was 41.7%, the “Recovery of patients after relapse of bacterial vaginosis” value [1, 12] was 46.2% and the “Recovery of patients suffering” value [1, 12] was 25.0%. For the same compound, the “Percent of patients with clusterizing profiles, V1 vs. V3” value [2, 10] was 37%, the “Percent of patients with clusterizing profiles, V1 vs. V3 vs. V4” value (from here on “Percent of patients … V1 vs. V3 vs. V4”) [2, 10] was 0% and the “Similarity Index V1-V3” value [2, 10] was 61.6. For the same compound, the “Similarity Index V1-V3-V4” value [2, 10] was 50.8, the “Similarity Index V1-V4” value [2, 10] was 52.1 and the “Similarity Index V3-V4” value [2, 10] was 66.8. The “Percent of patients with clusterizing profiles, V1 vs. V3” value [2, 11] was 24%, the “Percent of patients … V1 vs. V3 vs. V4” value [2, 11] was 0% and the “Similarity Index V1-V3” value [2, 11] was 48.4. The “Similarity Index V1-V3-V4” value [2, 11] was 36.4, the “Similarity Index V1-V4” value [2, 11] was 40.0 and the “Similarity Index V3-V4” value [2, 11] was 62.1. The “Percent of patients with clusterizing profiles, V1 vs. V3” value [2, 12] was 28%, the “Percent of patients … V1 vs. V3 vs. V4” value [2, 12] was 11% and the “Similarity Index V1-V3” value [2, 12] was 54.0. The “Similarity Index V1-V3-V4” value [2, 12] was 37.6, the “Similarity Index V1-V4” value [2, 12] was 47.1 and the “Similarity Index V3-V4” value [2, 12] was 42.8. The “Richness Index” value ([2]; visit V1 (before therapy), Group A: 1 tablet 100 mg × 5 days) was 13.5, the “Richness Index” value ([2]; visit V1 (before therapy), Group B: 1 tablet 25 mg × 5 days) was 14.0 and the “Richness Index” value ([2]; visit V1 (before therapy), Group C: 1 tablet 100 mg × 2 days) was 15.4. The “Richness Index” value [2, 4] was 10.9, the “Richness Index” value [2, 6] was 10.7 and the “Richness Index” value [2, 8] was 12.2. For the same compound, the rifaximin plasma concentrations [3] was “under the analytical detection limit”.

— patent US10258610B2, “Pharmaceutical compositions comprising rifaximin, processes for their preparation and their use in the treatment of vaginal infections” (ALFASIGMA S.P.A., priority 2011, dated 2019)
